The assay deals with stably-integrated TK strains. The assay is described as follows: FUdR counterselection of TK versus tk cells on SC media. The assay is classed as cell-based, Saccharomyces. The following applies: 50 μg/mL FUdR in synthetic complete (SC) media. How it is done: With a stably integrated copy of HSV-TK in each of several genomes, we were able to evaluate counterselection media conditions. […] As an initial test of our ability to recover newly generated tk wild-type cells, we transformed a strain of S. kudriavzevii that had regions of identical sequence on either side of its hoΔ::NatMX locus with TkMX PCR product and selected for cells resistant to the antifolate drugs (FIG. 4A). When counterselection with SC+FUdR media was conducted, only cells that had deleted the TkMX marker by homologous recombination survived and yielded colonies resistant to FUdR (FIG. 4B).

Experimental findings from patent US10870858B2 (priority 2014, dated 2020) are described below.

The structures appear in SMILES notation.

Turning to `O=c1[nH]c(=O)n([C@H]2C[C@H](O)[C@@H](CO)O2)cc1F` [FUdR, 5-fluorodeoxyuridine], the “growth of stably-integrated TK strains” value was “sufficient to inhibit growth” and the “growth of tk wild-type cells” value is “allow growth”.
